In US4892885A, “Esters of (triarylphosphoranylidene)carbamic acid for effecting diuresis” (American Cyanamid Company, priority 1988, dated 1990):

Columns and labels:
[1] = system: Spontaneously Hypertensive Rats; assay: Diuretic activity in spontaneously hypertensive rats (0-5 hour urine); format: in vivo, Male spontaneously hypertensive rats (SHR) of Okamoto strain; settings: 100 mg/kg by gavage, sodium chloride loading, SHR
Experimental: The diuretic activity of the compounds of this invention was also determined according to the method of Chan, P. S. and Poorvin, D., "Sequential method for combined screening antihypertensive and diuretic agents in the same spontaneously hypertensive rat." Clinical and Experimental Hypertension, 1(6), 817-830 (1979). Male spontaneously hypertensive rats (SHR) of Okamoto strain, 16 weeks old, Taconic Farms Inc. were used in the test. These rats were kept on Purina laboratory chow and tap water ad libitum for 8 weeks before use. One male adult rat (about 300 g) was dosed by gavage with a test compound at 100 mg/kg together with 0.9 sodium chloride loading at […] at zero hour. The tese compound was suspended in 3% preboiled starch at 50 mg/ml. The rat was put in a metabolism cage. The 0-5 hour urine was collected and urinary sodium and potassium were determined using a Beckman Astra 4.

[2] = system: plasma renin activity; assay: Inhibition of evoked (drug-induced) increase of plasma renin activity (PRA) in conscious rats; format: in vivo; settings: 25 mg/kg oral, 30 minutes prior to hydrochlorothiazide (10 mg/kg) + ACE inhibitor (1 mg/kg) provocative treatment; male Wistar rats; number of rats in parentheses
Experimental: Inhibition of evoked increase of plasma renin activity was determined by the following test.
Compounds were tested for their ability to prevent drug-induced elevation of plasma renin activity (PRA) in conscious, male Wistar rats (180-200 g, Charles River Lab.). PRA elevation was induced by a combined oral provocative treatment (C) of hydrochlorothiazide (10 mg/kg) and 1-(3-benzoyl-3-mercapto-2-methylpropionyl)-L-proline, acetate (U.S. Pat. No. 4,226,775) (one mg/kg), prepared by compounding in a mortar and pestle with preboiled 3% starch suspension. This treatment provided the daily maximum PRA. The daily minimum PRA was obtained from rats given oral starch suspension (S) alone. The magnitude of drug effect on PRA elevation was ascertained from rats pretreated orally with test agent (D), at the indicated doeses, 30 minutes prior to administration of provocative treatment (C). The test agent was also compounded in preboiled 3% starch suspension. The dose volumes for both pretreatment and provocative treatment were 2 ml/kg. One hour after provocative treatment the rats were sacrificed by decapitation and the first 3 seconds of blood collected in two chilled vacutainer tubes containing […] of 150 mg/ml tripotassium EDTA. […]
PRA is calculated as follows: PRA ([…])=PRA 37° C.-PRA 4° C.
Percent inhibition of PRA elevation is calculated as follows: [formula]

Row | Structure (SMILES) | Potassium (urinary) [1] [MEQ/5 Hours] | Sodium (urinary) [1] [MEQ/5 Hours] | Volume (urine) [1] [mL] | Percent Inhibition of Plasma Renin Elevation, Average % Inhibition (No. of rats) [2] [%]
1 | CCCN(CCC)Cc1ccccc1P(=NC(=O)OCC)(c1ccccc1)c1ccccc1 [[[2-[(Dipropylamino)methyl]phenyl]diphenylphosphoranylidene]carbamic acid, ethyl ester] | 0.40 | 1.41 | 22.0 | 
2 | COC(=O)N=P(c1ccccc1)(c1ccccc1)c1ccccc1CN(C)C [[[2-[(Dimethylamino)methyl]phenyl]diphenylphosphoranylidene]carbamic acid, methyl ester] | 0.83 | 1.62 | 19.5 | 77
3 | CCOC(=O)N=P(c1ccccc1)(c1ccccc1)c1ccccc1CN1CCCC1 [[Diphenyl[2-(1-pyrrolidinylmethyl)phenyl]phosphoranylidene]carbamic acid, ethyl ester] | 0.56 | 1.36 | 12.0 | 
4 | CCOC(=O)N=P(c1ccccc1)(c1ccccc1)c1ccccc1CN(CC)CC [[[[2-(Diethylamino)methyl]phenyl]diphenylphosphoranylidene]carbamic acid, ethyl ester] | 0.48 | 2.46 | 23.3 | 
5 | CCOC(=O)N=P(c1ccccc1)(c1ccccc1)c1ccccc1CN1CCCCC1 [[Diphenyl[2-(1-piperidinylmethyl)phenyl]phosphoranylidene]carbamic acid, ethyl ester] | 0.37 | 1.92 | 18.8 | 
6 | CCOC(=O)N=P(c1ccccc1)(c1ccccc1)c1ccccc1CNC.Cl [[[2-[(Methylamino)methyl]phenyl]diphenylphosphoranylidene]carbamic acid, ethyl ester, monohydrochloride] | 0.51 | 1.66 | 17.5 | 
7 | CCOC(=O)N=P(c1ccccc1)(c1ccccc1)c1ccccc1CN(C)C [[[2-[(Dimethylamino)methyl]phenyl]diphenylphosphoranylidene]carbamic acid, ethyl ester] | 0.67 | 1.47 | 15.5 | 16
